The text below walks through data of ChEMBL document CHEMBL1146617, “2-Aryl-3,6-dialkyl-5-dialkylaminopyrimidin-4-ones as novel crf-1 receptor antagonists” (Bioorg Med Chem Lett, 2003).

The structures appear in SMILES notation.

This data set in a line: in vitro. As to conditions: human, microsomes.
Usually half-life stands for the time needed for the level to fall by half in the phase considered. High values mean slow loss, low ones fast loss. On to `CCCN(CCC)c1c(C)nc(-c2ccc(OC)cc2OC)nc1O`, for which the half-life turned out to be 9.4 min.
Next, `CCCN(CCC)c1c(C)nc(-c2c(C)cc(C)cc2C)n(CC)c1=O`: 3.6 min; `CCCN(CCC)c1c(CC)nc(-c2c(C)cc(C)cc2OC)[nH]c1=O`: 8.1 min.
The same measure for `CCCN(CCC)c1c(C)nc(-c2c(C)cc(C)cc2OC)n(CCC)c1=O`: 3 min; for `CCCN(CCC)c1c(C)nc(-c2ccc(OC)cc2OC)n(CC2CC2)c1=O`: 1.5 min; for `CCCN(CCC)c1c(C)nc(-c2c(C)cc(C)cc2C)nc1O`: 7.5 min.
In turn, `CCCN(CCC)c1c(C)nc(-c2c(C)cc(C)cc2C)n(C)c1=O` gave a half-life of 4.6 min.
Next, `CCCN(CCC)c1c(C)nc(-c2c(C)cc(C)cc2C)n(CCN2CCCC2)c1=O`: 4.2 min; `CCCN(CCC)c1c(C)nc(-c2c(OC)cccc2OC(F)F)n(CC)c1=O`: 1.8 min; `CCCN(CCC)c1c(C)nc(-c2c(OC)cccc2OC)nc1O`: 13.3 min.
The same measure for `CCCN(CCC)c1c(C)nc(-c2c(C)cc(C)cc2OC)n(CC(F)(F)F)c1=O`: 3.4 min; for `CCCN(CCC)c1c(C)nc(-c2c(C)cc(C)cc2OC)n(C(C)C)c1=O`: 2.1 min.
Next, `CCCN(CCC)c1c(C)nc(-c2c(OC)cccc2OC(F)F)nc1O`: 21.6 min.
On to `CCCN(CCC)c1c(CC)nc(-c2c(C)cc(C)cc2OC)n(CC)c1=O`, for which the half-life amounted to 2.3 min.
The same measure for `CCCN(CCC)c1c(C)nc(-c2ccc(OC)cc2OC)n(CCC)c1=O`: 2.3 min; for `CCCN(CCC)c1c(C)nc(-c2c(C)cc(C)cc2OC)n(CCF)c1=O`: 3 min; for `CCCN(CCC)c1c(C)nc(-c2ccc(Cl)cc2Cl)n(CC)c1=O`: 1.9 min.
Next, `CCCN(CCC)c1c(C)nc(-c2c(C)cc(C)cc2OC)n(C)c1=O`: 2.5 min; `CCCN(CCC)c1c(C)nc(-c2c(C)cc(C)cc2OC)nc1O`: 15.5 min; `CCCN(CCC)c1c(C)nc(-c2ccc(OC)cc2OC)n(CCOC)c1=O`: 1.3 min.
